Assays:
[1] = solubility (physico-chemical properties); assay type: physicochemical
Description: The physico-chemical properties of Arthrichitin are as follows : Appearance : Colorless solid Solubility : Soluble in methanol and dimethylsulfoxide; insoluble in petroleum ether, chloroform, ethylacetate and water. Molecular weight : 642 (FAB MS) (Matrix : 3-nitrobenzyl alcohol) Molecular formula : C33H46N4O9 (calculated : […]; [observed : m/z 643.3341 (M + H)^+ (HR FAB-MS; matrix : MeOH/NBA; internal reference : polyethylene glycol 600); calculated for C33H47N4O9 : 643.3345] Melting point : 245°C [α]D : + 24.12°C (c 0.475, MeOH) HPLC retention time : 5.4 minutes [4 x (30 + 100) mm 10µ ODS ®Hypersil column; mobile phase : 35% acetonitrile in 0.02 M aqueous sodium phosphate buffer, pH 7.0; flow rate : 1 ml/min.; UV detection : 220 nm] UV λmax (MeOH) : 247, 266, 310 nm; no shift with acid and alkali IR (KBr) : Figure 1 ^1H NMR (300 MHz, DMSO-d6) : Figure 2 ^13C NMR (75 MHz, DMSO-d6) : Figure 3

[2] = system: Neurospora crassa strain SGF 18; assay: modified screening method of detecting cell-wall active compounds; assay type: cell-based
Method: Fermentation carried out for about 90 hours under submerged condition in shake flasks in order to achieve the maximum activity is particularly preferred. The progress of fermentation and the formation of Arthrichitin of the present invention can be detected by the modified screening method of detecting the cell-wall active compounds [J. Antibiotics, 39(11), 1620-1622, 1986] using the Neurospora crassa strain SGF 18.
The production of Arthrichitin was monitored by using the modified screening method of detecting cell-wall active compounds [J. Antibiot., 39 (11), 1620-22, 1986] using the Neurospora crassa strain SGF 18 and growing it in a medium containing the following nutrients : soluble starch 1.5%; Yeast extract 0.4%; K2HPO4 0.1 %; MgSO4.7H2O 0.05%; D-Sorbitol 7.5% (Osmotic stabilizer); L-Sorbose 2.5% (Glucan synthesis inhibitor) and agar 1.5%.

Erysiphe graminis = assay: in vivo activity against phytopathogenic fungi
Plasmopara viticola = assay: in vivo activity against phytopathogenic fungi
Botrytis cinerea = assay: in vivo activity against phytopathogenic fungi
Phytophthora infestans = conditions: in vivo
Pyricularia oryzae = conditions: in vivo
Septoria nodorum = assay: in vivo activity against phytopathogenic fungi
[3] = system: Pseudocercosporella herpotrichoides; assay: in vivo activity against phytopathogenic fungi

With `CCCCCCCCC(C)C1OC(=O)C(CO)NC(=O)C(C(=O)c2c[nH]c3ccccc23)NC(=O)C(CCC(=O)O)NC(=O)C1C` (centres unmarked) [Arthrichitin] the Solubility ([1]; chloroform) was “insoluble”, the Solubility ([1]; dimethylsulfoxide) was “Soluble” and the Solubility ([1]; ethylacetate) was “insoluble”. For the same compound, the Solubility ([1]; methanol) was “Soluble”, the Solubility ([1]; petroleum ether) was “insoluble” and the Solubility ([1]; water) was “insoluble”. For the same compound, the “activity as cell wall inhibiting compound” value [2] was “activity as cell wall inhibiting compound”, the “activity against Erysiphe graminis” value (Erysiphe graminis) was “very good activity” and the “activity against Plasmopara viticola” value (Plasmopara viticola) was “very good activity”. The “activity against Botrytis cinerea” value (Botrytis cinerea) was “very good activity”, the “activity against Phytophthora infestans” value (Phytophthora infestans) was “very good activity” and the “activity against Pyricularia oryzae” value (Pyricularia oryzae) was “very good activity”. The “activity against Septoria nodorum” value (Septoria nodorum) was “very good activity” and the “activity against Pseudocercosporella herpotrichoides” value [3] was “very good activity”.

From patent EP0786471A1, “Arthrichitin, a process for its production and its use” (HOECHST AKTIENGESELLSCHAFT, priority 1996, dated 1997)
